Assay results reported in patent US20130040991A1, “PHARMACEUTICAL COMPOSITION COMPRISING GEMFIBROZIL AND CYP2C8 AND/OR OATP SUBSTRATE DRUG SUCH AS REPAGLINIDE” (priority 2010, published 2013).

What was measured:
[1] = target: T1, CYP2C8 (Homo sapiens, UniProt P10632); assay: Effect of single oral gemfibrozil doses on repaglinide AUC, fitted to a mechanistic model of CYP2C8 inhibition; type: in vivo; design: The subjects ingested in a cross-over study a small dose (0.25 mg) of repaglinide with different doses of gemfibrozil; from tissue; host or cells: living human subjects (in vivo)
T1 sequence (P10632 1-490): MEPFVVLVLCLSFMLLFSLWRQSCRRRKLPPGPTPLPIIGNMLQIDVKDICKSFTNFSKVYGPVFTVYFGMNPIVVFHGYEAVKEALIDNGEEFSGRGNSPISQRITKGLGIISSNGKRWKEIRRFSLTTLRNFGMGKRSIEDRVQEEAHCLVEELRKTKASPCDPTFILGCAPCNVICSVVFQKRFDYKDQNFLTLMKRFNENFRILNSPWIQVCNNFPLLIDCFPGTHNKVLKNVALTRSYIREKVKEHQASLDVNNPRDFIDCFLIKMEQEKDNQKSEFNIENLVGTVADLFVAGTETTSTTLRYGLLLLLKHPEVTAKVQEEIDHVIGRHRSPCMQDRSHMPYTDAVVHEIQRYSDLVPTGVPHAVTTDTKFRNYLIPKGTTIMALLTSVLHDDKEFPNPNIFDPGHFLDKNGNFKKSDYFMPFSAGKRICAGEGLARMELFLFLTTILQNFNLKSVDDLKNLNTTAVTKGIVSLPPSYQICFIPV
Procedure: The effect of various oral single doses (30 mg, 100 mg, 300 mg and 900 mg) of gemfibrozil on the total plasma exposure, i.e., area under the plasma concentration-time curve (AUC), of a CYP2C8 and OATP1B1 substrate drug (repaglinide) was measured. The mean fold increase in the AUC (AUCi/AUCc) of repaglinide with the different gemfibrozil doses in six human subjects is given in relation to the mean average plasma concentration of gemfibrozil 1-O-β-glucuronide during 10 hours after gemfirozil dosing (Cavg). The subjects ingested in a cross-over study a small dose (0.25 mg) of repaglinide with different doses of gemfibrozil. Venous blood samples were taken at fixed time points up to 10 hours after gemfibrozil dosing, and plasma repaglinide, gemfibrozil and gemfibrozil 1-O-β-glucuronide concentrations were determined using a validated liquid chromatographic-tandem mass spectrometric (LC/MSMS) method. The data were fitted to the following mechanistic model (equation):

[2] = target: T1, CYP2C8; design: Estimation of CYP2C8 Half-Life Using Repaglinide as an in Vivo Probe; host or cells: in vivo (subjects of the cited studies); details: cited from earlier work
[3] = target: T1, CYP2C8; design: Estimation of CYP2C8 Half-Life Using Repaglinide as an in Vivo Probe; host or cells: in vivo (subjects of the cited studies); details: gemfibrozil 600 mg twice daily; Tornio et al 2008; cited from earlier work
[4] = Effects of different gemfibrozil doses on plasma profiles of repaglinide, repaglinide dose adjusted to equal AUC; type: in vivo, human; details: when the ratio of gemfibrozil (0-900 mg) to repaglinide is increased; repaglinide dose adjusted to same AUC
Procedure: The effects of different doses of gemfibrozil (0 mg, 30 mg, 100 mg, 300 mg and 900 mg) on plasma profiles of repaglinide were measured. The doses of repaglinide were adjusted so that the total exposure to repaglinide (defined as the area under plasma repaglinide concentration-time curve, AUC) is the same in all 5 cases, corresponding to the AUC after a single dose of 0.25 mg repaglinide without gemfibrozil.

| effect of small gemfibrozil doses in repeated dosing ([1]; repeated dosing, gemfibrozil doses <30 mg, due to irreversible inhibition of CYP2C8) | inhibition of the CYP2C8 enzyme ([1]; single oral dose of 100 mg gemfibrozil, model-based from fold increase in repaglinide (0.25 mg) AUC, six human subjects) | elimination half-life (and effect) of repaglinide [4] | estimated peak concentration of repaglinide [4] | Compound | inhibitor of CYP2C8 (qualitative) [2] | persistence of the risk of gemfibrozil-related interactions (effect on repaglinide pharmacokinetics) after the dose [3] |
| --- | --- | --- | --- | --- | --- | --- |
| increased | 90% |  |  | Cc1ccc(C)c(OCCCC(C)(C)C(=O)O)c1 [gemfibrozil, 5-(2,5-dimethylphenoxy)-2,2-dimethyl-pentanoic acid] | relatively weak inhibitor | at Least 12 hours |
|  |  | prolonged | reduced | CCOc1cc(CC(=O)N[C@@H](CC(C)C)c2ccccc2N2CCCCC2)ccc1C(=O)O [repaglinide] |  |  |
|  |  |  |  | Cc1ccc(C)c(OCCCC(C)(C)C(=O)O[C@@H]2O[C@H](C(=O)O)[C@@H](O)[C@H](O)[C@H]2O)c1 [gemfibrozil 1-O-β-glucuronide] | potent inhibitor and inactivator |  |
